Test results published in PMC6491884, “Synthesis and Biological Evaluation of 4β-N-Acetylamino Substituted Podophyllotoxin Derivatives as Novel Anticancer Agents” (Frontiers in Chemistry, 2019).

Legend:
T24 cells [1] = experiment: Hoechst 33258 staining, T24; assay type: cell-based, human; details: T24, 0.5/1.0/2.0 μM, 24 h, vs vehicle 0.1% DMSO
Description: (§1) Apoptosis is one of the major pathways leading to the process of cell death. Visualization of chromatin condensation as well as nuclear shrinking and fragmentation—known as classic characteristics of apoptosis—was carried out in the presence of a representative compound 12g by staining T24 and HeLA cells with Hoechst 33258, by which apoptosis was confirmed as the cause of reduced cell viability.
(§2) T24 and HeLA cells were seeded at a density of 3 × 10^4 cells per well and cultured in 6 well-plates on a cover slip for 24 h at 37°C. Compound 12g treated T24 and HeLA cancer cells for 24 h at 37°C with concentrations of 0.5/1.0/2.0 and 0.75/1.5/3.0 μM, respectively. Afterward, the treated cells were fixed with 4% paraformaldehyde (PFA) for 30 min and stained with 5 μg/mL Hoechst 33258 (bis-benzimide; KeyGEN Bio TECH, China) for 30 min. Nuclei were stained with Hoechst 33258 to examine chromatin condensation or nuclear fragmentation, morphological characteristics of apoptosis. After the cells were washed twice with PBS, the cover slip was inverted and placed on a glass slide and mounted. Apoptotic cells with fluorescence of the soluble DNA fragments were detected directly and photographed under a phase contrast microscope (OLYMPUS IX51, Japan) in a Varian Fluorometer at an excitation wavelength of 365 nm and emission wavelength of 460 nm (Shareef et al., [2015]).

[2] = system: T24 (human bladder carcinoma); experiment: MTT growth inhibition assay, T24; assay type: cell-based; details: T24, 48 h, read-out: IC50 (μM) T24, MTT, 48 h, n = 3
Description: (§3) Target compounds 12a–t were evaluated for in vitro cytotoxicity against four human tumor cell lines, including H460 (non-small cell lung carcinoma), HeLA (human cervical carcinoma), EC9706 (human esophageal squamous cell carcinoma), and T24 (human bladder carcinoma), using HaCaT (human immortalized epidermal cells) as a human non-malignant cell line. Etoposide (3) was included as a positive control. The screening procedure was based on the 3-(4, 5-dimethylthiazol-2-yl)-2, 5-diphenyltetrazoliun bromide (MTT) growth inhibition assay with triplicate experiments, and the results are summarized in Table 1.
(§4) The four human cancer cell lines and a normal human epidermal cell line of the screening panel, including H460 (human non-small cell lung carcinoma), HeLA (human cervical carcinoma), EC9706 (human esophageal squamous cell carcinoma), T24 (human bladder carcinoma), and HaCaT (human immortalized epidermal cells), were purchased from American Type Culture Collection (ATCC, Manassas, VA, U.S.A.). H460, EC9706, and T24 were maintained in RPMI 1640 medium containing 10% Fetal Bovine Serum, 100 units/ml penicillin, 100 μg/ml streptomycin under humidified incubator with 5% CO2 atmosphere at 37°C. HeLA and HaCaT were maintained in Dulbecco′s […] (DMEM) supplemented with 10% Fetal Bovine Serum 100 units/ml penicillin, 100 μg/ml streptomycin in a humidified incubator and 5% CO2 atmosphere at 37°C. Logarithmically growing cells were used for the following experiments.
(§5) The cytotoxicity of the synthesized compounds 12a–t against a panel of human cell lines was determined by the 3-(4,5-dimethylthiazol-2-yl)-2,5-diphenyltetrazoliun bromide (MTT) growth inhibition assay. The five human cell lines were, respectively, plated in 96-well-culture plates at the density of 1 × 10^5 cells per well and incubated for 24 h. Cells were exposed to different concentrations of synthetic podophyllotoxin derivatives for 48 h. MTT was added with a dose of 5 mg/mL in phosphate-buffered saline. After incubation for 4 h at 37°C, the purple formazan crystals were dissolved with […] dimethyl sulfoxide and the absorbance was measured at 570 nm in an ELISA reader. Antiproliferative activity was expressed using the IC50 value defined as the concentration of synthetic podophyllotoxin derivatives inhibiting cell proliferation by 50%. The cell viability ratio was calculated by the following formula: cell viability ratio (%) = OD treated /OD control × 100% (Ma et al., [2014]).

[3] = system: HaCaT (human immortalized epidermal cells); experiment: MTT growth inhibition assay, HaCaT normal cells; assay type: cell-based; details: 48 h, read-out: IC50 (μM) HaCaT, MTT, 48 h, n = 3, normal cell line
Description: as §3, §4, §5

[4] = system: H460 (human non-small cell lung carcinoma); experiment: MTT growth inhibition assay, H460; assay type: cell-based; details: NCI-H460, 48 h, read-out: IC50 (μM) H460
Description: as §3, §4, §5

[5] = system: EC9706 (human esophageal squamous cell carcinoma); experiment: MTT growth inhibition assay, EC9706; assay type: cell-based; details: EC9706, 48 h, read-out: IC50 (μM) EC9706
Description: as §3, §4, §5

T24 cells [6] = experiment: Cell cycle distribution analysis (FACS, propidium iodide), T24; assay type: cell-based, human
Description: (§6) Flow cytometry analysis was carried out to evaluate cell cycle changes and gain further insight into the mode of action with respect to the anti-proliferative effect of compound 12g. HeLA and T24 cancer cells were treated with the selected compound 12g for […] at three different gradient concentrations. The cell cycle accumulation was examined by the propidium iodide staining and cytometric quantification after the cancer cells were cultured for 24 h.
To understand the cell cycle effect of the synthesized analogs, cell cycle distribution analysis was performed by FACS (Becton Dickinson, San Jose, CA, USA). […] After treatment, the cells were washed once with PBS and fixed with 70% ice-cold ethanol at […] for overnight. Ethanol was removed by Centrifugation. The cells were stained with a solution containing 0.1% Triton-X 100 (Sigma), 0.2 mg/mL RNase (Sigma), and […] propidium iodide (PI, Sigma) in the dark for 30 min at room temperature. Then, cell cycle distribution was analyzed by using a FACS can flow cytometer (Chen et al., [2013]).

HeLA cells [7] = experiment: Cell cycle distribution analysis (FACS, propidium iodide), HeLA; assay type: cell-based, human; details: 24 h
Description: as §6
To understand the cell cycle effect of the synthesized analogs, cell cycle distribution analysis was performed by FACS (Becton Dickinson, San Jose, CA, USA). T24 and HeLA cells were treated with compound 12g for 24 h at 37°C with concentrations of 0.5/1.0/2.0 and 0.75/1.5/3.0 μM, respectively. After treatment, the cells were washed once with PBS and fixed with 70% ice-cold ethanol at […] for overnight. Ethanol was removed by Centrifugation. The cells were stained with a solution containing 0.1% Triton-X 100 (Sigma), 0.2 mg/mL RNase (Sigma), and […] propidium iodide (PI, Sigma) in the dark for 30 min at room temperature. Then, cell cycle distribution was analyzed by using a FACS can flow cytometer (Chen et al., [2013]).

HeLA cells [8] = experiment: Hoechst 33258 staining, HeLA; assay type: cell-based, human; details: 0.75/1.5/3.0 μM, 24 h, vs vehicle 0.1% DMSO
Description: as §1, §2

[9] = system: HeLA (human cervical carcinoma); experiment: MTT growth inhibition assay, HeLA; assay type: cell-based; details: Homo sapiens, 48 h, read-out: IC50 (μM) HeLA, MTT, 48 h, n = 3
Description: as §3, §4, §5

Structure (SMILES): CCCN(CCC)CC(=O)NC1c2cc3c(cc2C(c2cc(OC)c(O)c(OC)c2)C2C(=O)OCC12)OCO3 (stereo not shown) [Compound 12g]
- apoptotic morphology (Hoechst 33258 staining) (T24 cells [1]): markedly increased chromatin condensation, nuclear fragmentation and morphological changes
- IC50 [2]: 2.98 ± 0.26 µM
- IC50 [3]: > 50 µM
- IC50 [4]: 24.2 ± 0.77 µM
- IC50 [5]: > 50 µM
- accumulation of T24 cells at G2/M phase (T24 cells [6]; T24, 0.75 μM as printed in text): 65.15%
- accumulation of T24 cells at G2/M phase (T24 cells [6]; T24, 1.5 μM as printed in text): 62.76%
- accumulation of T24 cells at G2/M phase (T24 cells [6]; T24, 3.0 μM as printed in text): 79.87%
- Cell cycle phase (%) G2/M (HeLA cells [7]; 0.75 uM): 79.69%
- Cell cycle phase (%) G2/M (HeLA cells [7]; 1.5 uM): 89.18%
- Cell cycle phase (%) G2/M (HeLA cells [7]; 3 uM): 90.66%
- apoptotic morphology (Hoechst 33258 staining) (HeLA cells [8]): markedly increased chromatin condensation, nuclear fragmentation and morphological changes
- IC50 [9]: 2.34 ± 0.39 µM
